# Target: human activated kallikrein enzyme (Homo sapiens (Human), UniProt P03952)
# Test: Plasma kallikrein inhibition assay with fluorogenic peptide substrate, 500 pM activated kallikrein format
# Assay type: biochemical
# Details: 500 pM activated kallikrein; 300 uM Pro-Phe-Arg-7-amido-4-methylcoumarin substrate; 30 min preincubation, 10 min reaction at RT; read-out: Primary Dose Response Assay: Average EC50
# Procedure, shortened: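 Human activated kallikrein (500 pM format) was preincubated 30 min at RT with inhibitor in 20 mM Tris pH 7.5, 150 mM NaCl, 1 mM EDTA, 0.1% PEG-400, 0.1% Triton X-100. Reactions then ran 10 min at RT with 300 uM Pro-Phe-Arg-AMC. Fluorescence was read at ex 380/em 460 nm.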
# Chain of human activated kallikrein enzyme (P03952 391-638): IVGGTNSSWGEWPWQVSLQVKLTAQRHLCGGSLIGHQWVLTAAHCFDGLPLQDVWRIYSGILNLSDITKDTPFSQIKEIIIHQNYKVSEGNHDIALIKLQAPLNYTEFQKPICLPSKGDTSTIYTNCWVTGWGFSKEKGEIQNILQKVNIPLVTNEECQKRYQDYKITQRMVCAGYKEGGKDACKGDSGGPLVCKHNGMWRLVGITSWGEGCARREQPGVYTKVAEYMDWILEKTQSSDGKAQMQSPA
# Chain of human activated kallikrein enzyme (P03952 20-390 partner): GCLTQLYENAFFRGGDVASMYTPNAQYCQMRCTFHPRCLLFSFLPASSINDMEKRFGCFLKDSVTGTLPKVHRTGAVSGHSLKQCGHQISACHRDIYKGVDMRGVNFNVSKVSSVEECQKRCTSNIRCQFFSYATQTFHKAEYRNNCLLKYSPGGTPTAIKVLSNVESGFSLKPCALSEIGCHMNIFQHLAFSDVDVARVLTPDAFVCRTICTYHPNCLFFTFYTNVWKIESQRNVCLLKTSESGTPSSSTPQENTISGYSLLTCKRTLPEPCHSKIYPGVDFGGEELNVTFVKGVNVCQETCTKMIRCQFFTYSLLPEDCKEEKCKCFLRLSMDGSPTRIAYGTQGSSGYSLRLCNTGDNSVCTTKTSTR
row,Compound,EC50 [nM]
1,"O=C(NCc1cc2c(cn1)CCCO2)c1cn(Cc2cn3cc(C4CC4)ccc3n2)nn1 [Example I-150, 1-((6-cyclopropylimidazo[1,2-a]pyridin-2-yl)methyl)-N-((3,4-dihydro-2H-pyrano[3,2-c]pyridin-7-yl)methyl)-1H-1,2,3-triazole-4-carboxamide]",100 to 2000
2,"O=C(NC1Cc2ccc(Cl)cc21)c1cn(Cc2cn3cc(C4CC4)ccc3n2)nn1 (stereo not drawn) [Example I-151, N-(4-chlorobicyclo[4.2.0]octa-1(6),2,4-trien-7-yl)-1-((6-cyclopropylimidazo[1,2-a]pyridin-2-yl)methyl)-1H-1,2,3-triazole-4-carboxamide]",100 to 2000
3,"O=C(NCc1nccc(OC(F)F)c1F)c1cn(Cc2cn3cc(C4CC4)cc(N4CCN(CC(F)(F)F)CC4)c3n2)nn1 [Example I-152, 1-((6-cyclopropyl-8-(4-(2,2,2-trifluoroethyl)piperazin-1-yl)imidazo[1,2-a]pyridin-2-yl)methyl)-N-((4-(difluoromethoxy)-3-fluoropyridin-2-yl)methyl)-1H-1,2,3-triazole-4-carboxamide]",100 to 2000
4,CN1CCN(c2cc(C3CC3)cn3cc(Cn4cc(C(=O)NCc5nccc(OC(F)F)c5F)nn4)nc23)CC1 [Example I-153],1 to 10
5,Cc1[nH]nc2c1CC[C@H]2NC(=O)c1cn(Cc2cn3cc(C4CC4)ccc3n2)nn1 [Example I-154],1 to 10
6,Cc1[nH]nc2c1CC[C@H]2NC(=O)c1cnn(Cc2cn3cc(C4CC4)ccc3n2)c1 [Example I-155],1 to 10

# — US11787796B2, “Plasma Kallikrein inhibitors and uses thereof” (Takeda Pharmaceutical Company Limited, priority 2019, dated 2023)
